Columns and labels:
[1] = biological target: T1, Adenosine A1 receptor (human) membrane (Homo sapiens, UniProt P30542); test: Determination of competitive inhibition constant (Ki) for adenosine A1 receptor, [3H]-DPCPX radioligand; type: binding; settings: 1.0 nM [3H]-DPCPX
T1 construct: purchased PerkinElmer ES-010-M400UA
T1 sequence (P30542 1-326): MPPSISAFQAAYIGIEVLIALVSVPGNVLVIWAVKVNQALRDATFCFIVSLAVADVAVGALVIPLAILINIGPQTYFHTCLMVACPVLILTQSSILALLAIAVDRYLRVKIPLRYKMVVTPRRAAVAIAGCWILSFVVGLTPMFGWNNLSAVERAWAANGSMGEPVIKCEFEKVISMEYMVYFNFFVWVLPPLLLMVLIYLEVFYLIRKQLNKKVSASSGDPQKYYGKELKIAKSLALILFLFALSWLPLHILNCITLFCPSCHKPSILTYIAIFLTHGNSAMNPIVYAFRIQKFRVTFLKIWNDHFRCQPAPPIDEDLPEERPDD
Method: (§1) Test Example 1: Determination of Competitive Inhibition Constant (Ki) for Adenosine A1 and A2a Receptors
[^3H]-DPCPX (PerkinElmer, NET974250UC),
Adenosine A1 receptor (human) membrane (PerkinElmer, ES-010-M400UA),
assay buffer for A1 (25 mM HEPES, 5 mM MgCl2, 1 mM CaCl2, 100 mM NaCl, pH7.4), used to dilute adenosine A1 receptor (human) membrane and [^3H]-DPCPX;
wash buffer for A1 (25 mM HEPES, 5 mM MgCl2, 1 mM CaCl2, 100 mM NaCl, pH7.4);
(§2) Adenosine A1 receptor membrane was diluted to 0.025 μg/μl with assay buffer for A1, and Adenosine A2a receptor membrane was diluted to 0.05 μg/μl with assay buffer for A2a, so as to obtain Adenosine A1 receptor membrane dilution and Adenosine A2a receptor membrane dilution.
(§3) The compound to be tested and CGS-15943 were diluted with DMSO, and 1 W of the compound to be tested, high value control (0.5% DMSO), low value control (1000 nM CGS-15943) were added to a 96-well plate, and 100 W of Adenosine A1 receptor membrane dilution (containing 2.5 μg of membrane) was added to each well of the 96-well plate to obtain A1 detection plate; following the same steps, 100 W of Adenosine A2a receptor membrane dilution (containing 5.0 μg membrane) was added to each well of the 96-well plate to obtain A2a detection plate.
(§4) To the A1 detection plate, 100 μl of radioisotope-labeled ligand [^3H]-DPCPX (diluted with assay buffer for A1, working concentration of which was 1.0 nM) was added; and to the A2a detection plate, 100 μl of radioisotope-labeled ligand [^3H]-CGS-21680 (diluted with assay buffer for A2a, working concentration of which was 6.0 nM) was added. The A1 and A2a detection plates were sealed with tape, and incubated at room temperature for 1 h and 2 h, respectively.
(§5) Unifilter-96 GF/C filter plates were prepared, 50 μl of 0.3% PEI was added to each well of the Unifilter-96 GF/C filter plates, and the resulting filter plates were incubated at room temperature for not less than 0.5 h.
(§6) After the incubation was completed, the reaction solution was transferred from the A1 detection plate and the A2a detection plate to two Unifilter-96 GF/C filter plates, and washed with pre-cooled wash buffer for A1 and wash buffer for A2a, and then the filter plates were dried, sealed at bottom, then 50 W of Microscint 20 fluid scintillation cocktail was added, and then the filter plates were sealed at top, and counted by MicroBeta2 Reader.
(§7) Inhibition rate %=100−(signal value of test well−signal average value of low value control)/(signal average value of high value control−signal average value of low value control)*100.
(§8) EXCEL XLfit was used to fit IC50.
(§9) The calculation formula for competitive inhibition constant (Ki) was: Ki=IC50/(1+concentration of isotope-labeled ligand/Kd), wherein Kd was the dissociation constant of the isotope-labeled ligand.

[2] = biological target: T2, Adenosine A2a receptor (human) membrane (Homo sapiens, UniProt P29274); test: Determination of competitive inhibition constant (Ki) for adenosine A2a receptor, [3H]-CGS-21680 radioligand; type: binding; settings: for Ki: human A2a receptor membrane, 6.0 nM [3H]-CGS-21680, read-out: Ki(A2a); for Ki(A1)/Ki(A2a): selectivity ratio A1 over A2a
T2 construct: purchased PerkinElmer RBHA2AM400UA
T2 sequence (P29274 whole entry): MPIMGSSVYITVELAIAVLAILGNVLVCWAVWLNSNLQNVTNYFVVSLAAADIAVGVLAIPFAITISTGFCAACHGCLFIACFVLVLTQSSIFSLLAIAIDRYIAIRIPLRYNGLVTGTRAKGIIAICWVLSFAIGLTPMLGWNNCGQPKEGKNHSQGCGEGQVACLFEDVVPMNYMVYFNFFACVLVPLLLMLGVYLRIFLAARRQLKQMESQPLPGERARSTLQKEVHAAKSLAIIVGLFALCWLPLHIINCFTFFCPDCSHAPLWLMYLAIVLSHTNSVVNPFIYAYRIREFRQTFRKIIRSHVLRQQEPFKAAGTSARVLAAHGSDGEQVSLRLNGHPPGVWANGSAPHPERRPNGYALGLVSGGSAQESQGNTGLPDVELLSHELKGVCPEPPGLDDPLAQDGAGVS
Method: as §1
Adenosine A2a receptor (human) membrane (PerkinElmer, RBHA2AM400UA),
assay buffer for A2a (50 mM Tris-HCl, 10 mM MgCl2, 1 mM EDTA, pH7.4), used to dilute adenosine A2a receptor (human) membrane (human origin) and [^3H]-CGS-21680; and
wash buffer for A2a (50 mM Tris-HCl, 154 mM NaCl, pH7.4).
as §2, §3, §4, §5, §6, §7, §8, §9

ADORA2a/CHOK1 cells = biological target: T3, ADORA2a/CHOK1 cells (Homo sapiens, UniProt P29274); test: Inhibitory activity for ADORA2a/CHOK1 cells (cAMP detection, adenosine as agonist); type: cell-based; settings: for inhibition at 0.1 µM: CHO-K1, 100 nM compound, read-out: Inhibition rate at 100 nM; for inhibition at 1 µM: CHO-K1, 1000 nM compound, read-out: Inhibition rate at 1000 nM
T3 construct: host or cells: CHO-K1
T3 sequence (P29274 whole entry): as above
Method: Test Example 2: Study on Inhibitory Activity for ADORA2a/CHOK1 Cells
ADORA2a/CHOK1 cells (Cobai, CBP71017).
FBS was added to Ham's F-12 medium to a concentration of 10% (v/v), Zeocin was added to a final concentration of 200 μg/mL, and Hygromycin B was added to a final concentration of 100 μg/mL, and the resulting mixture was stored at 4° C. for later use.
A certain amount of adenosine was precisely weighed and placed into a 1.5 mL EP tube, then a certain volume of cell culture medium was added, the resulting mixture was incubated at 37° C. for dissolution, thereby a 10 mM stock solution was prepared. The stock solution was diluted with cell culture medium at 1:1000 to get 10 μM adenosine solution.
The compound to be tested was dissolved in DMSO to form a 10 mM stock solution, and the stock solution was stored in a refrigerator at 4° C. for later use. The stock solution was diluted with the 10 μM of adenosine solution to 2000 nM or 200 nM for later test.
(1) CHO-K1 cells stably expressing ADORA2A receptor were cultured in a 37° C., 5% CO2 cell incubator. When the cell confluence reached about 80%, the cells were digested by trypsin, dispersed and counted; (2) the cell concentration was adjusted to 6×10^5 cells/mL according to the counting results; (3) the cells was inoculated into a white 384-well cell culture plate at 5 μL per well (about 3000 cells/well).
All groups were provided with multiple wells, the adenosine-free cell culture medium was added to the wells of the Blank group (5 μL/well); 10 μM adenosine solution was added to the wells of the Agonist group (5 μL/well); the diluted compound was added to the wells of the test compound group (5 μL/well). After the addition of the compound was completed, the 384-well plate was centrifuged at 2500 rpm for 30 seconds to fully mix the compound and the medium, then placed in a 25° C. incubator and incubated for 30 min.
A certain volume of cAMP-d2 was taken, and diluted by adding Lysis & Detection Buffer at the ratio of 1:5 to prepare Solution A.
A certain volume of cAMP-Cryptate was taken, and diluted by adding Lysis & Detection Buffer at the ratio of 1:5 to prepare Solution B.
(2) After 30 min of incubation in step 2 was completed, addition of detection solution was carried out. The 384-well plate was taken out, 5 μL of Solution A was added to each well, and then 5 μL of Solution B was added to each well, then the 384-well plate was covered with sealing membrane, centrifuged at 2500 rpm for 30 s (to fully mix the detection solution and medium), and incubated in a thermostat at 25° C. for 1 h.
After the incubation, the 384-well plate was taken out, and detected by PHERA Star FS to read data, detection wavelength: 620 nm/665 nm.
inhibition rate %=(1−(RCompound−RBlank)/(RAgonist−RBlank))*100%
wherein, RCompound represented the R Value of the test compound group, RAgonist represented the R value of the Agonist group, and RBlank represented the R value of the Blank group.

## Cc1ncnc2ccc(-c3c(-c4ccc(F)cc4)nc(NC(=O)N4CCOCC4)nc3C3CC3)cc12 [Compound 44, N-(4-cyclopropyl-6-(4-fluorophenyl)-5-(4-methylquinazolin-6-yl)pyrimidin-2-yl)morpholine-4-carboxamide]
[1]
  Ki: 931 nM
[2]
  Ki: 14.5 nM
  Ki(A1)/Ki(A2a): 64.2
ADORA2a/CHOK1 cells
  inhibition at 0.1 µM: 64.8%
  inhibition at 1 µM: 104%

## Cc1ncnc2ccc(-c3c(C#N)cc(NC(=O)N4CCOCC4)nc3-c3ccc(F)cc3)cc12 [Compound 43, N-(4-cyano-6-(4-fluorophenyl)-5-(4-methylquinazolin-6-yl)pyridin-2-yl) morpholine-4-carboxamide]
[1]
  Ki: 134 nM
[2]
  Ki: 1.36 nM
  Ki(A1)/Ki(A2a): 98.3
ADORA2a/CHOK1 cells
  inhibition at 0.1 µM: 59.1%
  inhibition at 1 µM: 100%

From US20210395226A1, “SUBSTITUTED ARYL COMPOUND AND PREPARATION METHOD THEREFOR AND USE THEREOF” (SICHUAN KELUN-BIOTECH BIOPHARMACEUTICAL CO., LTD., priority 2018, published 2021)
